Test results taken from ChEMBL document CHEMBL3137667, “[Drug-induced liver injury; fourteenth updated edition of the bibliographic database of liver injuries and related drugs]” (Gastroenterol Clin Biol, 2004).

How the values were obtained:
[1] = human, serum
[2] = human
[3] = Times to onset, minimal and maximal, observed in the indexed observations. [column 'DELAI' in source]; conditions: human
[4] = Highest frequency of acute liver toxicity observed during clinical trials, expressed as a percentage. [column '% AIGUE' in source]; conditions: human
[5] = human; remark: listed apart in the source
[6] = human, serum; remark: listed apart in the source
[7] = human; remark: listed apart in the source
[8] = human; remark: listed apart in the source
[9] = Highest frequency of moderate liver toxicity observed during clinical trials, expressed as a percentage. [column '% BIOL' in source]; conditions: human
[10] = human; remark: listed apart in the source
[11] = human; remark: listed apart in the source
[12] = human; remark: listed apart in the source
[13] = human; remark: listed apart in the source
[14] = human; remark: listed apart in the source
[15] = human, serum, 4383 h
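Throughout, for Hepatotoxicity (association with vascular disease): count of indexed literature references reporting vascular liver injury in humans, e.g. peliosis hepatitis, hepatic veno-occlusive disease or Budd-Chiari syndrome.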
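Throughout, for Hepatotoxicity (benign tumour): value is a count of indexed literature references citing a benign tumour confirmed by histopathology.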
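Throughout, for Hepatotoxicity (choleostasis): human cholestatic liver injury, shown by histopathology or by peak ALT or AST elevation over alkaline phosphatase ratio below 2, value counts indexed literature reports.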
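Throughout, for Hepatotoxicity (chronic liver disease): chronic liver injury confirmed by histopathology or persistently raised serum aminotransferase activity beyond 6 months, value given as the count of indexed literature references.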
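Throughout, for Hepatotoxicity (cirrhosis): value is a count of indexed literature references reporting cirrhosis confirmed by histopathology.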
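Throughout, for Hepatotoxicity (cytolytic): human cytolytic liver injury, shown by histopathology or by a ratio above 5 of peak ALT or AST elevation to alkaline phosphatase elevation, value counts indexed references.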
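Throughout, for Hepatotoxicity (granulomatous hepatitis): value is a count of indexed literature references reporting granulomatous liver disease confirmed by histopathology.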
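Throughout, for Hepatotoxicity (malignant tumour): malignant tumour confirmed by histopathology, value gives the count of indexed literature references reporting it.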
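Throughout, for Hepatotoxicity (severe hepatitis): human clinical data: severe hepatitis, meaning potentially life-threatening liver failure or clinically observed cases, the value counts how many indexed literature references report it.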
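Throughout, for Hepatotoxicity (steatosis): steatosis confirmed by histopathology, value is the count of indexed references.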

SMILES | Hepatotoxicity (moderate) [1] | Hepatotoxicity (cytolytic) [2] | Hepatotoxicity (time to onset) [3] | Hepatotoxicity (acute) [4] | Hepatotoxicity (choleostasis) [5] | Hepatotoxicity (acute) [6] | Hepatotoxicity (steatosis) [7] | Hepatotoxicity (benign tumour) [8] | Hepatotoxicity (moderate) [9] | Hepatotoxicity (malignant tumour) [10] | Hepatotoxicity (cirrhosis) [11] | Hepatotoxicity (association with vascular disease) [12] | Hepatotoxicity (severe hepatitis) [13] | Hepatotoxicity (granulomatous hepatitis) [14] | Hepatotoxicity (chronic liver disease) [15]
O=C(O)Cc1sc(-c2ccccc2)nc1-c1ccc(Cl)cc1 [FENTIAZAC] | 3 | 1 | 4 months - 5 months | 6.1% | 0 | 2 | 0 | 0 | 35% | 0 | 0 | 0 | 0 | 0 | 0
CC(C)=CCC1C(=O)N(c2ccccc2)N(c2ccccc2)C1=O [FEPRAZONE] | 1 | 2 | 2 weeks - 1 month | 0% | 2 | 2 | 0 | 0 | 0% | 0 | 0 | 0 | 0 | 1 | 0
O=C(COc1ccc(Cl)cc1)N1CCN(Cc2ccc3c(c2)OCO3)CC1 [FIPEXIDE] | 0 | 3 | 15 days - 3 months | 0% | 0 | 4 | 0 | 0 | 0% | 0 | 0 | 0 | 1 | 0 | 0
Cc1c(-c2ccccc2)oc2c(C(=O)OCCN3CCCCC3)cccc2c1=O [FLAVOXATE] | 0 | 1 | 2.5 months | 0% | 0 | 1 | 0 | 0 | 0% | 0 | 0 | 0 | 0 | 0 | 0
O=C(NCCN1CCN(c2cccc3c2OC[C@H](CO)O3)CC1)c1ccc(F)cc1 [FLESINOXAN] | 1 | 0 | 6 weeks | 0% | 0 | 0 | 0 | 0 | 12.5% | 0 | 0 | 0 | 0 | 0 | 0
CCN(CC)CCN1C(=O)CN=C(c2ccccc2F)c2cc(Cl)ccc21 [FLURAZEPAM] | 0 | 0 | 2 weeks - 6 months | 0% | 3 | 3 | 1 | 0 | 0% | 0 | 0 | 0 | 0 | 0 | 0
Nc1ccn([C@@H]2O[C@H](CO)[C@@H](O)C2(F)F)c(=O)n1 [GEMCITABINE] | 13 | 6 | 1 cure - 7 cures | 45.5% | 3 | 12 | 0 | 0 | 90.9% | 0 | 0 | 2 | 2 | 0 | 0
CO/N=C1\CN(c2nc3c(cc2F)c(=O)c(C(=O)O)cn3C2CC2)CC1CN (stereo not given) [GEMIFLOXACIN] | 4 | 0 | 6 days | 0% | 0 | 0 | 0 | 0 | 0.3% | 0 | 0 | 0 | 0 | 0 | 0
CN1C2CCCC1CC(NC(=O)c1nn(C)c3ccccc13)C2 (stereo not given) [GRANISETRON] | 2 | 0 | 1 week | 0% | 0 | 0 | 0 | 0 | 7.9% | 0 | 0 | 0 | 0 | 0 | 0
N=C(N)NCC1COc2ccccc2O1 (stereo not given) [GUANOXAN] | 2 | 1 | 2 months - 1 year | 10% | 2 | 2 | 0 | 0 | 30% | 0 | 0 | 0 | 1 | 0 | 0
NN [HYDRAZINE] | 0 | 1 | 3.5 months | 0% | 0 | 1 | 0 | 0 | 0% | 0 | 0 | 0 | 1 | 0 | 0
C[C@]12CCC(=O)C=C1CC[C@@H]1[C@@H]2[C@@H](O)C[C@@]2(C)[C@H]1CC[C@]2(O)C(=O)CO [HYDROCORTISONE] | 1 | 0 | 2 months | 0% | 0 | 0 | 10 | 0 | 25% | 0 | 0 | 0 | 1 | 0 | 0
CCN(CCO)CCCC(C)Nc1ccnc2cc(Cl)ccc12 (stereo not given) [HYDROXYCHLOROQUINE] | 1 | 1 | 1 year | 5.3% | 1 | 2 | 0 | 0 | 11.1% | 0 | 0 | 0 | 1 | 0 | 0
CC(C)Cc1ccc(CC(=O)O)cc1 [IBUFENAC] | 2 | 3 | 4 months | 5% | 1 | 3 | 0 | 0 | 40% | 0 | 0 | 0 | 1 | 0 | 0
O=c1[nH]c(=O)n([C@H]2C[C@H](O)[C@@H](CO)O2)cc1I [IDOXURIDINE] | 3 | 0 | 1 week - 2 weeks | 0% | 1 | 1 | 0 | 0 | 3.6% | 0 | 0 | 0 | 0 | 0 | 0
